The values below come from patent publication US5191073A, “Chromogenic merocyanine enzyme substrates” (priority 1992, dated 1993).

Structures are written as SMILES.

A short description of data set [1]: Study of Chromogenic Substrate Properties: absorbance maxima, shift, extinction coefficient (Table D). The class given is physicochemical. The following applies: for λ max Chromogen / λ max Substrate: colour in words where no value; for ε × 10^3 Chromogen / ε × 10^3 Substrate: values are ε × 10^3; for λ max Shift: shift from substrate to chromogen.
Data set [2] in a line: Study of Chromogenic Substrate Properties: pKa (Table D). The class given is physicochemical.
Data set [3] has as its system β-galactosidase. The data set can be described thus: Study of Chromogenic Substrate Properties: enzyme turnover, Km and Kcat (Table D). The class given is biochemical.
Data set [4] has as its system β-galactosidase. The data set can be described thus: colour change of reaction mixture or extract on treatment with β-galactosidase. It counts as biochemical. How it is done:
3-Ethyl-2-(4'-β-D-galactopyranosyloxynaphthyl-1'-vinylene)-benzothiazolium iodide (20)--Approximately equal amounts of 4-(β-D-galactopyranosyloxy) -1-naphthaldehyde (5) and 2-methylbenzothiazole ethiodide (8) (H. Richter & R. L. Dresser, supra) were heated at reflux for about 1 minute in ethanol containing a small amount of piperidine. The initially colorless mixture became red-orange during this time. The presence of (20) in the reaction mixture was determined by mixing a portion of the reaction mixture with an equal amount of dimethylformamide, diluting this with 0.1M phosphate buffer pH=7.0, and then treating the resulting solution with β-galactosidase.
3-Ethyl-2-(6'-β-D-galactopyranosyloxynaphthyl-2'-vinylene)-benzoselenazolium iodide (24)--A mixture of 6-(β-D-galactopyranosyloxy)-2-naphthaldehyde (6) (34 mg, 0.1 mmole), 2-methylbenzoselenazole ethiodide (12) (H. Richter & R. L. Dresser, supra) (35 mg, 0.1 mmole) and 0.5 mL of anhydrous pyridine was heated in a 70° C. oil bath for 20 hours.
1-Ethyl-4-(4'-β-D-galactopyranosyloxynaphthyl-1'-vinylene)-quinoliniumiodide (29)--A mixture of 4-(β-D-galactopyranosyloxy)-naphthaldehyde (5) (34 mg, 0.1 mmole), lepidine ethiodide (28) (H. Richter & R. L. Dresser, supra) (30 mg, 0.1 mmole) and 0.5 mL of anhydrous pyridine was heated in a 70° C. oil bath for 3 hours. Then an additional of 60 mg of lepidine ethiodide (28), was added and the reaction mixture was allowed to react in the 70° C. oil bath for a total of 20 hours.

For `CC[N+]1=C(C=Cc2ccc(O[C@@H]3O[C@H](CO)[C@H](O)[C@H](O)[C@H]3O)cc2)C(C)(C)c2ccccc21` [Compound 16, 1-Ethyl-2-(4'-β-D-galactopyranosyloxystyryl)-3,3-dimethylindolenium iodide], in data set [1], the “λ max Chromogen” value is on record as 522, the “ε × 10^3 Chromogen” value was determined as 45.0, the “λ max Shift” value is 116 and the “λ max Substrate” value amounted to 406. Further, the “ε × 10^3 Substrate” value in data set [1] was determined as 25.3. For the same molecule, in data set [2], the pKa (in general, the pH at which an ionisable group is half protonated) is 7.3. Also, in data set [3], the Kcat is 1.43 × 10^3 mole/min per mole active site and the Km – broadly, the concentration of substrate that gives half-maximal velocity – came to 18 µM.
Regarding `CC[N+]1=C(C=Cc2ccc(O[C@@H]3O[C@H](CO)[C@H](O)[C@H](O)[C@H]3O)c3ccccc23)C(C)(C)c2ccccc21` [Compound 17, 1-Ethyl-2-(4'-β-D-galactopyranosyloxynaphthyl-1-vinylene)-3,3-dimethylindolinium iodide], in data set [1], the “λ max Chromogen” value turned out to be 580, the “ε × 10^3 Chromogen” value turned out to be 82.0, the “λ max Shift” value worked out at 124 and the “λ max Substrate” value worked out at 456. The “ε × 10^3 Substrate” value in data set [1] is given as 28.0. The pKa in data set [2] worked out at 6. In data set [3], the Kcat was 7.8 × 10^3 mole/min per mole active site and the Km was 90 µM.
Turning to `CC[N+]1=C(C=Cc2ccc3cc(O[C@@H]4O[C@H](CO)[C@H](O)[C@H](O)[C@H]4O)ccc3c2)C(C)(C)c2ccccc21` [Compound 18, 1-Ethyl-2-(6'-β-D-galactopyranosyloxynaphthyl-2'-vinylene)-3,3-dimethylindolenium iodide], in data set [1], the “λ max Chromogen” value was 530, the “λ max Shift” value was determined as 100, the “λ max Substrate” value is 430 and the “ε × 10^3 Substrate” value came out at 32.2. Further, the pKa in data set [2] worked out at 8.3. Further, in data set [3], the Kcat was 1.3 × 10^4 mole/min per mole active site and the Km turned out to be 80 µM.
`CC[n+]1c(C=Cc2ccc(O[C@@H]3O[C@H](CO)[C@H](O)[C@H](O)[C@H]3O)cc2)sc2ccccc21.[Cl-]` [Compound 19, 3-Ethyl-2-(4'-β-D-galactopyranosyloxystyryl) benzothiazolium chloride]: in data set [1], the “λ max Chromogen” value is reported as 492, the “ε × 10^3 Chromogen” value was found to be 43.0, the “λ max Shift” value amounted to 99 and the “λ max Substrate” value is reported as 393. The same molecule came in with a pKa in data set [2] of 7.6. Further, in data set [3], the Kcat was 3.04 × 10^3 mole/min per mole active site and the Michaelis constant (Km) amounted to 17 µM.
With `CC[n+]1c(C=Cc2ccc(O[C@@H]3O[C@H](CO)[C@H](O)[C@H](O)[C@H]3O)c3ccccc23)sc2ccccc21` [Compound 20, 3-Ethyl-2-(4'-β-D-galactopyranosyloxynaphthyl-1'-vinylene)-benzothiazolium iodide], in data set [1], the “λ max Chromogen” value is reported as “violet” and the “λ max Substrate” value is “yellow”. In addition, the “colour change on addition of β-galactosidase” value in data set [4] (dimethylformamide diluted with 0.1M phosphate buffer pH=7.0) is on record as “turned from yellow in color to violet”.
Consider `CC[n+]1c(C=Cc2ccc(O[C@@H]3O[C@H](CO)[C@H](O)[C@H](O)[C@H]3O)c3ccccc23)sc2cc(OC)ccc21` [Compound 21, 3-Ethyl-2-(4'-β-D-galactopyranosyloxynaphthyl-1'-vinylene)-6-methoxybenzothiazolium iodide], for which, in data set [1], the “λ max Chromogen” value stood at 598, the “ε × 10^3 Chromogen” value is 80.1, the “λ max Shift” value is reported as 176 and the “λ max Substrate” value was 422. In addition, the “ε × 10^3 Substrate” value in data set [1] was found to be 10.5. The same molecule gave a pKa in data set [2] of 6.6. Besides, in data set [3], the Kcat is recorded as 2.8 × 10^3 mole/min per mole active site and the Km is 430 µM.
Turning to `C[n+]1c(/C=C/c2ccc(O[C@@H]3O[C@H](CO)[C@H](O)[C@H](O)[C@H]3O)c3ccccc23)sc2ccc3ccccc3c21` [Compound 22, 2-(4'-β-D-galactopyranosyloxynaphthyl-1'-vinylene)-3-methyl-β-naphthothiazolium iodide], in data set [1], the “λ max Chromogen” value is reported as 610, the “λ max Shift” value was 140 and the “λ max Substrate” value is 470. In data set [2], this molecule had a pKa of 7.
On to `CC[n+]1c(C=Cc2ccc(O[C@@H]3O[C@H](CO)[C@H](O)[C@H](O)[C@H]3O)c3ccccc23)sc2ccc(C)cc21` [Compound 23, 3-Ethyl-2-(4'-β-D-galactopyranosyloxynaphthyl-1'-vinylene)-5-methylbenzothiazolium iodide], for which, in data set [1], the “λ max Chromogen” value is “blue” and the “λ max Substrate” value is listed as “yellow”.
In the case of `CC[n+]1c(C=Cc2ccc3cc(O[C@@H]4O[C@H](CO)[C@H](O)[C@H](O)[C@H]4O)ccc3c2)[se]c2ccccc21` [Compound 24, 3-Ethyl-2-(6'-β-D-galactopyranosyloxynaphthyl-2'-vinylene)-benzoselenazolium iodide], in data set [1], the “λ max Chromogen” value is recorded as “purple” and the “λ max Substrate” value was “yellow”. For the same molecule, the “colour change on addition of β-galactosidase” value in data set [4] (0.3M bicene buffer (pH 7.9), β-galactosidase and a drop of 1N NaOH) is on record as “turned to purple immediately”.
Turning to `Cc1ccc2oc(C=Cc3ccc(O[C@@H]4O[C@H](CO)[C@H](O)[C@H](O)[C@H]4O)c4ccccc34)[n+](CCC(=O)O)c2c1` [Compound 25, 3-(2"-Carboxyethyl)-2-(4'-β-D-galactopyranosyloxynaphthyl-1'-vinylene)-5-methyl benzoxazolium bromide], in data set [1], the “λ max Chromogen” value was determined as 550, the “ε × 10^3 Chromogen” value came out at 50.1, the “λ max Shift” value worked out at 130 and the “λ max Substrate” value came out at 420. Besides, in data set [1], the “ε × 10^3 Substrate” value was found to be 15.8. Further, in data set [2], the pKa came out at 6.6. In data set [3], the Kcat is reported as 9.8 × 10^2 mole/min per mole active site and the Michaelis constant (Km) was determined as 80 µM.
`CC[n+]1c(C=Cc2ccc(O[C@@H]3O[C@H](CO)[C@H](O)[C@H](O)[C@H]3O)c3ccccc23)ccc2ccccc21` [Compound 26, 1-Ethyl-2-(4'-β-D-galactopyranosyloxynaphthyl-1'-vinylene)-quinoliniumiodide]: in data set [1], the “λ max Chromogen” value stood at 606, the “ε × 10^3 Chromogen” value worked out at 70.2, the “λ max Shift” value is 172 and the “λ max Substrate” value is on record as 434. The “ε × 10^3 Substrate” value in data set [1] is 16.0. In addition, the pKa in data set [2] was 6.5.
As to `CC[n+]1ccc(C=Cc2ccc(O[C@@H]3O[C@H](CO)[C@H](O)[C@H](O)[C@H]3O)c3ccccc23)c2ccccc21` [Compound 29, 1-Ethyl-4-(4'-β-D-galactopyranosyloxynaphthyl-1'-vinylene)-quinoliniumiodide], in data set [1], the “λ max Chromogen” value was “blue” and the “λ max Substrate” value was “yellow”. In data set [4] (50 mM phosphate buffer (pH 7.4)), the “colour change on addition of β-galactosidase” value is reported as “yellow solution turned to blue color”. Also, the “time to colour change on addition of β-galactosidase” value in data set [4] (50 mM phosphate buffer (pH 7.4), yellow to blue) is no more than 5 s.
